{"source": "patent US20100261706A1", "about": "“SUBSTITUTED TETRACYCLIC 1H-INDENO [1,2-B]PYRIDINE-2(5H)-ONE ANALOGS THEREOF AND USES THEREOF” (INOTEK PHARMACEUTICALS CORPORATION, priority 2008, published 2010)", "tested_on": "diabetic rats exhibiting contrast-induced nephropathy", "experiment": "Contrast-induced nephropathy (CIN) model in streptozotocin-diabetic rats, contrast agent iomeprol", "assay_type": "in vivo, Male Wistar rats", "method": "Effect of Tetracyclic 1H-indeno[1,2-b]pyridine-2(5H)-one analogs on the prophylaxis of contrast induced nephropathy\nMale Wistar rats (150-200 g; Harlan Nossanr) were housed in a controlled environment and provided with standard rodent chow and water.\nAfter 12 h of fasting, the animals received a single 60 mg/kg intravenous (i.v.) injection of streptozotocin (Sigma, St. Louis, Mo.) in 10 mM sodium citrate buffer, pH 4.5 (see figure showing CIN model). Control non-diabetic animals were fasted and received citrate buffer alone. After 24 h, animals with blood glucose levels greater than 250 mg/dl were considered diabetic. All experiments were performed 10 days following the induction of diabetes. The diabetic state was evaluated daily by determination of the blood glucose levels. Upon the induction of the diabetic state the animals were presenting with a major risk factor pre-disposing the animals to CIN after the administration of contrast media.\n10 days following the induction of diabetes the rats were anesthetized with 90 mg/kg ketamine i.m. and 10 mg/kg xylazine i.m. and were treated with the contrast agent iomeprol (10 mL/kg injected via the lateral tail vein) or with 0.9% normal saline. The contrast agent used was the low osmolar non-ionic monomer iomeprol (lomeron, 400 mgI mL−1; Bracco SpA, Milan, Italy) with an osmolality of 726±34 mosmol/kg H2O.\nUpon completion of surgical procedures, the animals were randomly allocated to different groups.\nAt the indicated time point blood samples were collected via the lateral tail vein into S1/3 tubes containing serum gel. The samples were centrifuged (6000 r.p.m. for 3 min) to separate plasma. All plasma samples were analyzed for biochemical parameters within 24 hours after collection. Plasma urea, plasma and urine concentrations of creatinine were measured as indicators of impaired glomerular function. Plasma concentrations of NGAL (neutrophil gelatinase associated lipocalin) levels and urine αGST (alpha glutathione S-transferase)and NGAL levels were evaluated.\nAt postmortem, a […] section of kidney was removed and placed in formalin and processed through to wax. […] sections were cut and stained with hematoxylin and eosin. Histologic assessment of outer medulla damage was examined by an experienced morphologist, who was not aware of the sample identity. The criteria for injury/necrosis were the following: 0=normal histology; 1=minor edema, minor cell swelling; 2=haemorrhage, moderate edema, moderate cells vacuolization and swelling; 3=moderate haemorrhage, moderate edema, moderate cells vacuolization, swelling and chromatin alteration; 4=severe edema, severe cells vacuolization, swelling and chromatin alteration, presence of necrosis spot; 5=severe edema, severe cells vacuolization, swelling and chromatin alteration, severe necrosis.", "note": "Structures can show the parent of a compound that is named as a salt."}
{"smiles": "O=c1[nH]c2c(c3c1CCCC3)Cc1c(CN3CC[C@H](F)C3)cccc1-2", "note": "[Example 17, (S)-10-((3-fluoropyrrolidin-1-yl)methyl)-3,4,6,11-tetrahydro-1H-indeno[1,2-c]isoquinolin-5(2H)-one mesylate]", "values": [{"measurement": "kidney histological scores", "setting": "outer medulla damage score 0-5, FIG. 4", "result": "reduced"}, {"measurement": "level of plasma creatinine", "setting": "relative to contrast agent alone, FIG. 1", "result": "reduces"}, {"measurement": "level of plasma NGAL", "setting": "relative to contrast agent alone, FIG. 2", "result": "reduces"}, {"measurement": "level of urine NGAL", "setting": "relative to contrast agent alone, FIG. 3", "result": "reduces"}, {"measurement": "level of urine GST", "setting": "relative to contrast agent alone, FIG. 5", "result": "reduces"}]}
